Data set [1] has as its system LNCaP. The experiment in a line: Induction of apoptosis in human LNCAP cells at 10 to 100 uM after 48 hrs by propidium iodide staining-based FACS analysis. In kind it is functional, cell-based. In general terms: In flow cytometry, cells or beads pass a laser one at a time.
Data set [2] relates to HCT-116. The experiment in a line: Antimigratory activity against human HCT116 cells at 50 uM after 72 hrs. In kind it is functional, cell-based.
Data set [3] concerns HCT-116. The experiment in a line: Induction of apoptosis in human HCT116 cells at 10 to 100 uM after 48 hrs by propidium iodide staining-based FACS analysis. It counts as functional, cell-based.
Data set [4] concerns LNCaP. The experiment in a line: Inhibition of LSD1/JmjC in human LNCAP cells assessed as increase in H3K9me3 level at 50 uM by Western blotting analysis. In kind it is cell-based. (In western blotting, separated proteins are transferred to a membrane and probed.)
Data set [5] deals with HCT-116. The experiment in a line: Cell cycle arrest in human HCT116 cells assessed as accumulation at pre-G1 phase at 50 uM after 30 hrs by propidium iodide staining-based FACS analysis. In kind it is functional.
The subject of data set [6] is LNCaP. The experiment in a line: Cytotoxicity against human LNCAP cells at 50 uM after 72 hrs. It counts as functional, cell-based.
The test system of data set [7] is HCT-116. In words: Inhibition of LSD1/JmjC in human HCT116 cells assessed as increase in H3K4me2/3 level at 50 uM by Western blotting analysis. It counts as cell-based.
Data set [8] in a line: Induction of apoptosis in human MePR cells assessed as accumulation at pre-G1 phase at 50 uM after 24 hrs by propidium iodide staining-based FACS analysis (reference value: 8.4%). It counts as cell-based.
Data set [9] relates to HCT-116. In words: Inhibition of LSD1/JmjC in human HCT116 cells assessed as increase in H3K9me3 level at 50 uM by Western blotting analysis. It counts as cell-based.
Data set [10] deals with LNCaP. The experiment in a line: Antimigratory activity against human LNCAP cells at 50 uM after 72 hrs. It counts as functional, cell-based.
Data set [11] concerns the target Hypoxia-inducible factor 1-alpha inhibitor (Homo sapiens, UniProt Q9NWT6). The experiment in a line: Inhibition of FIH (unknown origin) by mass spectrometry.
For a further data set, the target named is Egl nine homolog 1 (Homo sapiens, UniProt Q9GZT9). In words: Inhibition of PHD2 (unknown origin) by mass spectrometry.
Sequence of Egl nine homolog 1 (Q9GZT9 whole entry): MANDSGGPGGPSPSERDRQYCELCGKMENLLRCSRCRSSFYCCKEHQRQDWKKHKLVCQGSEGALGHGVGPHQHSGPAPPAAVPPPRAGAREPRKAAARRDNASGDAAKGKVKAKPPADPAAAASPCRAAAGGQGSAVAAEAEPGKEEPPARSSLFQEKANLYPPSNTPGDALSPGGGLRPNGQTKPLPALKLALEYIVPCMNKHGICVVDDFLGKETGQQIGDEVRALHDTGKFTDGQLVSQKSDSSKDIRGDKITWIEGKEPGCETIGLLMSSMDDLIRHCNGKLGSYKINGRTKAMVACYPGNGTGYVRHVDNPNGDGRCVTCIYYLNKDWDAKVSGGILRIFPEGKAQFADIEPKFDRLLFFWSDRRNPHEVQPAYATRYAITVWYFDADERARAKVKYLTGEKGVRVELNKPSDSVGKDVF

Calls of active or inactive are those of the source. The rule behind the calls is not given here. Where only a bound is given, the exact number is not on record here.

Sequence of Hypoxia-inducible factor 1-alpha inhibitor (Q9NWT6 whole entry): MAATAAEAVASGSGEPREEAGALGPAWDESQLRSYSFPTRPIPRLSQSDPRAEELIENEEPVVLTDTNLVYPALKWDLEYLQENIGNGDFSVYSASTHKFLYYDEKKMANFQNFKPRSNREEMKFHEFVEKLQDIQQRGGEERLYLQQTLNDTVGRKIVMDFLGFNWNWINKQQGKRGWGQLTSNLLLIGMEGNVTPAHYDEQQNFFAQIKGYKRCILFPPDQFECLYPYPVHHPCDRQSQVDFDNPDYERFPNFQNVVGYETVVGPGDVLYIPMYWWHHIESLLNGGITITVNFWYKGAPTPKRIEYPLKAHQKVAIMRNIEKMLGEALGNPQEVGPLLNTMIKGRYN

As to `COC(=O)c1ccnc(-c2cc(C(=O)Nc3ccc([C@@H]4C[C@H]4N)cc3)ccn2)c1.Cl` (relative stereo), the outcome with LNCaP [1], with HCT-116 [2], with HCT-116 [3], in the data set with HCT-116 [5] and in the data set on LNCaP [6] was Active. The inhibition result in the data set on LNCaP [4], in the data set with HCT-116 [7] and with HCT-116 [9] was “Active” each time. Further, in data set [8], the Activity worked out at 12.8%. In addition, in the data set on LNCaP [10], the result was inactive.
With `Cl.N[C@@H]1C[C@H]1c1ccc(NC(=O)c2ccc(O)c3ncccc23)cc1` (relative stereo), the result in the data set with LNCaP [1], with HCT-116 [3], with HCT-116 [5] and in the data set on LNCaP [6] was Active. The outcome in the data set on HCT-116 [2] and in the data set with LNCaP [10] was inactive. Further, the inhibition result in the data set on LNCaP [4], in the data set on HCT-116 [7] and in the data set with HCT-116 [9] was “Active” in each case. In addition, the IC50 – broadly, the concentration at which inhibition is half-maximal – came out at 25 µM in data set [11] and 8.5 µM against Egl nine homolog 1. Moreover, the Activity in data set [8] came to 4.2%.
Consider `N[C@@H]1C[C@H]1c1ccc(NC(=O)c2ccnc(-c3cc(C(=O)O)ccn3)c2)cc1` (relative stereo), for which the IC50 was over 100 µM in data set [11] and 278 µM against Egl nine homolog 1.
